In experiment [1] the target is T1, Amine oxidase [flavin-containing] A (Homo sapiens, UniProt P21397).
T1 sequence (P21397 whole entry): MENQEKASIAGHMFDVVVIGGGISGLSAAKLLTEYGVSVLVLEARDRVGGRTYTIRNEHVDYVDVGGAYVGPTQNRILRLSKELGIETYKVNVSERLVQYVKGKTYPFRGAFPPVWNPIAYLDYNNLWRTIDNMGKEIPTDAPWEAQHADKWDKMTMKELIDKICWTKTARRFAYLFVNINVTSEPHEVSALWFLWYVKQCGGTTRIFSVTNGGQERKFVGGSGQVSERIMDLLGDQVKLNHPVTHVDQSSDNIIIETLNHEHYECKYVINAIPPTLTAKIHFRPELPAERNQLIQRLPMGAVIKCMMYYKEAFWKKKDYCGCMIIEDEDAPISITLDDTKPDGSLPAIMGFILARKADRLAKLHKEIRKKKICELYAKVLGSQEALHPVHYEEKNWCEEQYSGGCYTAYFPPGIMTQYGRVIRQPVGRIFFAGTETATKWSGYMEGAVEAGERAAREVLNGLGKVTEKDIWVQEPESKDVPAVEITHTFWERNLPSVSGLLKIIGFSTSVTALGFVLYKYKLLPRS
In words: Inhibition of recombinant human MAOA incubated for 15 mins measured after 30 mins by luminescence-Glo assay.

The target in experiment [2] is T2, Lysine-specific histone demethylase 2 (Homo sapiens, UniProt Q8NB78).
T2 sequence (Q8NB78 whole entry): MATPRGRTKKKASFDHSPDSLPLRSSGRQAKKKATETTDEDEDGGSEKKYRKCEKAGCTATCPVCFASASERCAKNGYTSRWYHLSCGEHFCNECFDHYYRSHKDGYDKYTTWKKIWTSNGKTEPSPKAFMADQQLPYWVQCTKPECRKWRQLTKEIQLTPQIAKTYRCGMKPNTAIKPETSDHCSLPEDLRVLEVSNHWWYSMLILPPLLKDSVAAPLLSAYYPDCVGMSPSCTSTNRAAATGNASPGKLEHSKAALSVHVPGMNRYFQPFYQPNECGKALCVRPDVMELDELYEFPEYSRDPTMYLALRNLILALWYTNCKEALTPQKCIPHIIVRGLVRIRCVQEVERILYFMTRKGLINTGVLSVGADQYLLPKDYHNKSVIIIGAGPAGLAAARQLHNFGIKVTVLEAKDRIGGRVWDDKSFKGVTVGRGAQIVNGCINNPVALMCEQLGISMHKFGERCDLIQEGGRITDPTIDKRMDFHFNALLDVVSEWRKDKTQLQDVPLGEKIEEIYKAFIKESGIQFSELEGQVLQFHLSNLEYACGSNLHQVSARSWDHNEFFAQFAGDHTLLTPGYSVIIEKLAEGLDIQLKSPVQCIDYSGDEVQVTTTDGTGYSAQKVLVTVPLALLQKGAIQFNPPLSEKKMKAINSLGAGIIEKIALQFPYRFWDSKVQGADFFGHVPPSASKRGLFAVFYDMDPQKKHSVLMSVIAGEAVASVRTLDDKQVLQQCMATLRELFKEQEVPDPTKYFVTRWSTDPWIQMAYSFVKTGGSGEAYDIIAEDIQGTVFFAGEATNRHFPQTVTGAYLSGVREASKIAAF
As to the kind of experiment: Inhibition of KDM1B (unknown origin).

In experiment [3] the test system is THP-1. As to the kind of experiment: Anticlonogenic activity against human THP1 cells assessed as inhibition of methylcellulose colony formation at 0.5 uM after 13 days relative to control. The class given is functional. Conditions: THP-1, 312 h.
Experiment [4] relates to THP-1. As to the kind of experiment: Induction of apoptosis in human THP1 cells at 0.5 uM after 72 hrs by Annexin V-propidium iodide double staining based flow cytometry. It counts as functional, cell-based. On the technique in general: Flow cytometry measures light scatter and fluorescence of single cells or particles in a stream.
Experiment [5] concerns THP-1. In words: Cell cycle arrest in human THP1 cells at 0.5 uM after 72 hrs by propidium iodide staining based flow cytometry. It counts as functional.

Among the data in ChEMBL document CHEMBL4007416, “Thieno[3,2-b]pyrrole-5-carboxamides as New Reversible Inhibitors of Histone Lysine Demethylase KDM1A/LSD1. Part 2: Structure-Based Drug Design and Structure-Activity Relationship” (J Med Chem, 2017) are IC50, inhibition and Activity values, retold here.

Activity calls are given as the source filed them. The rule behind the calls is not given here.

In general, IC50 refers to the concentration that inhibits the measured activity by half. As usually defined, the inhibition is the change of the read-out against control, counted positive when it falls. For `N[C@H]1CC[C@H](N[C@@H]2C[C@H]2c2ccccc2)CC1`, the IC50 was 41.3 µM in experiment [1] and 12.9 µM in experiment [2]. Moreover, the inhibition at 0.5 µM in the experiment on THP-1 [3] was determined as 70%. For the same molecule, the result in the experiment on THP-1 [4] and with THP-1 [5] was inactive.
